# Test results published in ChEMBL document CHEMBL4229543, “Squaramides as novel class I and IIB histone deacetylase inhibitors for topical treatment of cutaneous t-cell lymphoma” (Bioorg Med Chem Lett, 2018).
# pEC50, pKi: −log10 of the molar value.
# Target: Histone deacetylase 4 (Homo sapiens, UniProt P56524)
# Test: Inhibition of human recombinant HDAC4 using fluorogenic HDAC substrate class 2a after 30 mins by fluorimetrc method
# Conditions: not given
# Chain of Histone deacetylase 4 (P56524 whole entry): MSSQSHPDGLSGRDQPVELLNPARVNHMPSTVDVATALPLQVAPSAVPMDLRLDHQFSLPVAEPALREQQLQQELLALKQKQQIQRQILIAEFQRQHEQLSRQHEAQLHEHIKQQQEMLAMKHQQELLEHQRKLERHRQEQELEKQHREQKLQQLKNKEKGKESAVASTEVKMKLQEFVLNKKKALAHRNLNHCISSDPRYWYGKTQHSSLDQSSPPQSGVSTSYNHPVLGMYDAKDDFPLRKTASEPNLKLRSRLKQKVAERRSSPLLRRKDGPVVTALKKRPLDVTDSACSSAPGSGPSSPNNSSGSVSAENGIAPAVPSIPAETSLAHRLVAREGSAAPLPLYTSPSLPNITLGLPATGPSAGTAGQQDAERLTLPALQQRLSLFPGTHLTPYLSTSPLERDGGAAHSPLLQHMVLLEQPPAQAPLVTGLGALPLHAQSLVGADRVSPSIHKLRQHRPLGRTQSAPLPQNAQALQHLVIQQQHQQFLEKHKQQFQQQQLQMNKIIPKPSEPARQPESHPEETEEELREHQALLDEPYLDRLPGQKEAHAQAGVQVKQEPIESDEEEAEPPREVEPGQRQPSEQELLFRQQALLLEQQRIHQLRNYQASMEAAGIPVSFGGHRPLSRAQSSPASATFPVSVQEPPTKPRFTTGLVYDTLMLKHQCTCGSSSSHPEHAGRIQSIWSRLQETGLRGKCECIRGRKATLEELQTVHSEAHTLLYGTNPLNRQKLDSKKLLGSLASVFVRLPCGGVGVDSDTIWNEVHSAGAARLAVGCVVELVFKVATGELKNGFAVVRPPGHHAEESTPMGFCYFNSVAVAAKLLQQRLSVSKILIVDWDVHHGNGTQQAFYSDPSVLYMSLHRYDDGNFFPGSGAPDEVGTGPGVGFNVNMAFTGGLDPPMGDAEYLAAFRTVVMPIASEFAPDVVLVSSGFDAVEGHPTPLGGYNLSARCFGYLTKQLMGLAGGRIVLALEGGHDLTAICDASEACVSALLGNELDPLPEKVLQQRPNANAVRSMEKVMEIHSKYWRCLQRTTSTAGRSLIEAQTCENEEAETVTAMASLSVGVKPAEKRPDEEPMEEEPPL
row,pKi,Structure (SMILES)
1,< 5.00,CC(Nc1c(NCCCCCC(=O)NO)c(=O)c1=O)C12CC3CC(CC(C3)C1)C2 (stereo not given)
2,< 5.00,COc1ccc(Nc2c(NCCCCCC(=O)NO)c(=O)c2=O)cc1
3,5.47,CC(C)(CCCCC(=O)NO)Nc1c(Nc2ccc(C(F)(F)F)cc2)c(=O)c1=O

# Tested on: HuT78
# Test: Pro-apoptotic activity in human HUT78 cells after 18 hrs by caspase-Glo 3/7 assay
# Type: functional, cell-based
# Conditions: HuT78, 18 h
row,pEC50,Structure (SMILES)
1,7.01,CC(Nc1c(NCCCCCC(=O)NO)c(=O)c1=O)C12CC3CC(CC(C3)C1)C2 (stereo not given)
2,8.31,COc1ccc(Nc2c(NCCCCCC(=O)NO)c(=O)c2=O)cc1
3,8.14,CC(C)(CCCCC(=O)NO)Nc1c(Nc2ccc(C(F)(F)F)cc2)c(=O)c1=O

# Target: T1, Protein deacetylase HDAC6 (Homo sapiens, UniProt Q9UBN7)
# T1 sequence (Q9UBN7 whole entry): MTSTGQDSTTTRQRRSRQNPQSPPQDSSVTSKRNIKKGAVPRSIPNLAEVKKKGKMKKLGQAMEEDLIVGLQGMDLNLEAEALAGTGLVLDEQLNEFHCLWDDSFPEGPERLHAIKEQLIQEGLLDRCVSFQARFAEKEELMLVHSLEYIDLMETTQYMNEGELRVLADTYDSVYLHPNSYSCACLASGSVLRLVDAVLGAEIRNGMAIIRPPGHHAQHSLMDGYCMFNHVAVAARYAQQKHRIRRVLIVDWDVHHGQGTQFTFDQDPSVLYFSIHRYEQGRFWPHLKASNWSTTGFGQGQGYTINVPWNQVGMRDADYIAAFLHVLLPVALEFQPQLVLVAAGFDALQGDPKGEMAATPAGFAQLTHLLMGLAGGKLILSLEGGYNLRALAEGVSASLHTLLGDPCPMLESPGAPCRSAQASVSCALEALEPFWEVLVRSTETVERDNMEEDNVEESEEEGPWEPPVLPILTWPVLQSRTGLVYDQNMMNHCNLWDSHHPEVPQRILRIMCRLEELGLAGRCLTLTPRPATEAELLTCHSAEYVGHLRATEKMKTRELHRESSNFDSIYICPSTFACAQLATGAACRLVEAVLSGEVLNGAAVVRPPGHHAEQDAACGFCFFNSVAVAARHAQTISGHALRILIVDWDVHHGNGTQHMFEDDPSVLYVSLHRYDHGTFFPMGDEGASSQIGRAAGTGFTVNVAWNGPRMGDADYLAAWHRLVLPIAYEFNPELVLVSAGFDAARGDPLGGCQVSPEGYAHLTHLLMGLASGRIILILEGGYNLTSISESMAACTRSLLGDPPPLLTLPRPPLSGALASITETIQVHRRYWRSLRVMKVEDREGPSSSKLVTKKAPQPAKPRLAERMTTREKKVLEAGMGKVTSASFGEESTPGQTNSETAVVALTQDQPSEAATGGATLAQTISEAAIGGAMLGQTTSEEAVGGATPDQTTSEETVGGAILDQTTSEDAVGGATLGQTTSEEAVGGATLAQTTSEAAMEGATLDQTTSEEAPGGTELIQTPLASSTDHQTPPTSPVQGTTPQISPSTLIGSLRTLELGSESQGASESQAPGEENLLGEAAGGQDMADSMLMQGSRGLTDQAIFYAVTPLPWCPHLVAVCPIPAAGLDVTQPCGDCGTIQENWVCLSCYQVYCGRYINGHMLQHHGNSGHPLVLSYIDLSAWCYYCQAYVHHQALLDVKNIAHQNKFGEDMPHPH
# Test: Inhibition of human recombinant HDAC6 using fluorogenic HDAC substrate after 30 mins by fluorimetrc method
# Conditions: not given
row,pKi,Structure (SMILES)
1,6.89,CC(Nc1c(NCCCCCC(=O)NO)c(=O)c1=O)C12CC3CC(CC(C3)C1)C2 (stereo not given)
2,7.64,COc1ccc(Nc2c(NCCCCCC(=O)NO)c(=O)c2=O)cc1
3,6.89,CC(C)(CCCCC(=O)NO)Nc1c(Nc2ccc(C(F)(F)F)cc2)c(=O)c1=O

# Target: Histone deacetylase 3 (Homo sapiens, UniProt O15379)
# Sequence (O15379 whole entry): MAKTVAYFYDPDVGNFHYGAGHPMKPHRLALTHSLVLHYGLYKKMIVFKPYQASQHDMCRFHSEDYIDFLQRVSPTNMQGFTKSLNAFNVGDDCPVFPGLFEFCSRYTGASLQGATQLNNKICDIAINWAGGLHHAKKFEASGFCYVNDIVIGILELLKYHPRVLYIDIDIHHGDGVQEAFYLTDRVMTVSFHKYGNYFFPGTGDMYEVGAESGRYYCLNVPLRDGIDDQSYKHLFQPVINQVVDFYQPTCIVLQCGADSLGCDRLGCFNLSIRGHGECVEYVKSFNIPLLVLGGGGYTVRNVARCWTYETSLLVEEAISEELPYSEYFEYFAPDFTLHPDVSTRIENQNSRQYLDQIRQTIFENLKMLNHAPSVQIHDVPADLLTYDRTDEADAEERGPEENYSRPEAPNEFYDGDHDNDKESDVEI
# Test: Inhibition of human recombinant HDAC3 using fluorogenic HDAC substrate after 10 mins by […] method
# Conditions: not given
row,pKi,Structure (SMILES)
1,7.24,CC(Nc1c(NCCCCCC(=O)NO)c(=O)c1=O)C12CC3CC(CC(C3)C1)C2 (stereo not given)
2,9.10,COc1ccc(Nc2c(NCCCCCC(=O)NO)c(=O)c2=O)cc1
3,7.92,CC(C)(CCCCC(=O)NO)Nc1c(Nc2ccc(C(F)(F)F)cc2)c(=O)c1=O

# Target: Histone deacetylase 9 (Homo sapiens, UniProt Q9UKV0)
# Sequence (Q9UKV0 whole entry): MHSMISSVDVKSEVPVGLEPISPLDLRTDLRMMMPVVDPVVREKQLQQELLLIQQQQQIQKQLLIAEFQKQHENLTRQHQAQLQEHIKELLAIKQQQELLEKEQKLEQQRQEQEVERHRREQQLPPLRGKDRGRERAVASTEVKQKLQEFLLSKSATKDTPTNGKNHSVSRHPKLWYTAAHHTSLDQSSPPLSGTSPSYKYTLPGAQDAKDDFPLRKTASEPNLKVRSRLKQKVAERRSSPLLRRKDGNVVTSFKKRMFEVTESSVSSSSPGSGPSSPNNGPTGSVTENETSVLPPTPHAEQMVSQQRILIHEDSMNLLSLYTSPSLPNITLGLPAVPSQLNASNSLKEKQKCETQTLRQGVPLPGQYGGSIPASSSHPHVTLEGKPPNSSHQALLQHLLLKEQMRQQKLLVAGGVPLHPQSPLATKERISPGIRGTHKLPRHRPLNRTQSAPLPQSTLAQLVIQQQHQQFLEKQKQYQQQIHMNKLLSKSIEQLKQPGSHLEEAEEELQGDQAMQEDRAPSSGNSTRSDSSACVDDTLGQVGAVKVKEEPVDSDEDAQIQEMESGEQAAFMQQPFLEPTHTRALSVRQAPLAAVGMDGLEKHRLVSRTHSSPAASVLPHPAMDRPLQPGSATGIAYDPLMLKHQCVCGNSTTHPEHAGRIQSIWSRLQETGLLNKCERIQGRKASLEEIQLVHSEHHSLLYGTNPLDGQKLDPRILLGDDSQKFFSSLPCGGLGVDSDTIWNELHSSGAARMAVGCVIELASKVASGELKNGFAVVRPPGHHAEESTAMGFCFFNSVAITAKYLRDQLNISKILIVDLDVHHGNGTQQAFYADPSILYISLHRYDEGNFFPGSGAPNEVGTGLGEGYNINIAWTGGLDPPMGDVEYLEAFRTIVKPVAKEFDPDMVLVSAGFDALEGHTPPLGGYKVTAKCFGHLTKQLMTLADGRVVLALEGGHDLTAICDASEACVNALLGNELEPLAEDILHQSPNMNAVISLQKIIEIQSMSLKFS
# Test: Inhibition of human recombinant HDAC9 using fluorogenic HDAC substrate class 2a after 30 mins by fluorimetrc method
# Conditions: not given
row,pKi,Structure (SMILES)
1,< 5.00,CC(Nc1c(NCCCCCC(=O)NO)c(=O)c1=O)C12CC3CC(CC(C3)C1)C2 (stereo not given)
2,< 5.00,COc1ccc(Nc2c(NCCCCCC(=O)NO)c(=O)c2=O)cc1
3,< 5.00,CC(C)(CCCCC(=O)NO)Nc1c(Nc2ccc(C(F)(F)F)cc2)c(=O)c1=O

# Target: T2, Histone deacetylase 1 (Homo sapiens, UniProt Q13547)
# T2 sequence (Q13547 whole entry): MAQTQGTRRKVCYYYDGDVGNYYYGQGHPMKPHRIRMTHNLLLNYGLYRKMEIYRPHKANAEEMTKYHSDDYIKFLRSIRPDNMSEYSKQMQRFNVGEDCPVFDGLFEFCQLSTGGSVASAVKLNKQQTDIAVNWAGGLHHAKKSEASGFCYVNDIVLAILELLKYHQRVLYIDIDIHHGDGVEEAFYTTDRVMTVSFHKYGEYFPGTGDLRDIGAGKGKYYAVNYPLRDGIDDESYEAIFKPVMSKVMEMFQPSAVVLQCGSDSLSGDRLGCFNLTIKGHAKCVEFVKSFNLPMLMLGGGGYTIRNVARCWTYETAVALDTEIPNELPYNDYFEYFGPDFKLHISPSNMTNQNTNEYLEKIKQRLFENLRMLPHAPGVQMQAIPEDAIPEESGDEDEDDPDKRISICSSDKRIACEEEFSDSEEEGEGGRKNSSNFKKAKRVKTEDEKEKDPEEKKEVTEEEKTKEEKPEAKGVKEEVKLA
# Test: Inhibition of human recombinant HDAC1 using Fluor de Lys as substrate after 2 hrs by fluorescence method
# Conditions: not given
row,pKi,Structure (SMILES)
1,8.42,CC(Nc1c(NCCCCCC(=O)NO)c(=O)c1=O)C12CC3CC(CC(C3)C1)C2 (stereo not given)
2,10.12,COc1ccc(Nc2c(NCCCCCC(=O)NO)c(=O)c2=O)cc1
3,9.57,CC(C)(CCCCC(=O)NO)Nc1c(Nc2ccc(C(F)(F)F)cc2)c(=O)c1=O

# Target: T3, Histone deacetylase 11 (Homo sapiens, UniProt Q96DB2)
# T3 sequence (Q96DB2 whole entry): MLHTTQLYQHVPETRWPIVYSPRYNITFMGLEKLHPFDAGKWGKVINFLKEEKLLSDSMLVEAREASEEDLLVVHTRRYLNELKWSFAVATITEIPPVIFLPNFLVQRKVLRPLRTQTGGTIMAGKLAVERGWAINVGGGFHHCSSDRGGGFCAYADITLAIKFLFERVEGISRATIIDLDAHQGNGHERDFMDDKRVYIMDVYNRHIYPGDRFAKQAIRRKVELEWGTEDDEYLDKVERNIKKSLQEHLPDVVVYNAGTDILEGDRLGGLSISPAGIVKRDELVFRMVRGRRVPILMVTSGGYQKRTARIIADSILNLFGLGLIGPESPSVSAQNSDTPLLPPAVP
# Test: Inhibition of human recombinant HDAC11 using fluorogenic HDAC substrate class 2a after 30 mins by fluorimetrc method
# Conditions: not given
row,pKi,Structure (SMILES)
1,7.42,CC(Nc1c(NCCCCCC(=O)NO)c(=O)c1=O)C12CC3CC(CC(C3)C1)C2 (stereo not given)
2,6.85,COc1ccc(Nc2c(NCCCCCC(=O)NO)c(=O)c2=O)cc1
3,7.68,CC(C)(CCCCC(=O)NO)Nc1c(Nc2ccc(C(F)(F)F)cc2)c(=O)c1=O

# Target: T2, Histone deacetylase 1
# Test: Inhibition of human recombinant HDAC1 using fluorogenic HDAC substrate after 15 mins by fluorimetrc method
# Conditions: not given
row,pKi,Structure (SMILES)
1,7.32,CC(Nc1c(NCCCCCC(=O)NO)c(=O)c1=O)C12CC3CC(CC(C3)C1)C2 (stereo not given)
2,9.47,COc1ccc(Nc2c(NCCCCCC(=O)NO)c(=O)c2=O)cc1
3,9.00,CC(C)(CCCCC(=O)NO)Nc1c(Nc2ccc(C(F)(F)F)cc2)c(=O)c1=O

# Target: T4, NAD-dependent protein deacetylase sirtuin-1 (Homo sapiens, UniProt Q96EB6)
# T4 sequence (Q96EB6 whole entry): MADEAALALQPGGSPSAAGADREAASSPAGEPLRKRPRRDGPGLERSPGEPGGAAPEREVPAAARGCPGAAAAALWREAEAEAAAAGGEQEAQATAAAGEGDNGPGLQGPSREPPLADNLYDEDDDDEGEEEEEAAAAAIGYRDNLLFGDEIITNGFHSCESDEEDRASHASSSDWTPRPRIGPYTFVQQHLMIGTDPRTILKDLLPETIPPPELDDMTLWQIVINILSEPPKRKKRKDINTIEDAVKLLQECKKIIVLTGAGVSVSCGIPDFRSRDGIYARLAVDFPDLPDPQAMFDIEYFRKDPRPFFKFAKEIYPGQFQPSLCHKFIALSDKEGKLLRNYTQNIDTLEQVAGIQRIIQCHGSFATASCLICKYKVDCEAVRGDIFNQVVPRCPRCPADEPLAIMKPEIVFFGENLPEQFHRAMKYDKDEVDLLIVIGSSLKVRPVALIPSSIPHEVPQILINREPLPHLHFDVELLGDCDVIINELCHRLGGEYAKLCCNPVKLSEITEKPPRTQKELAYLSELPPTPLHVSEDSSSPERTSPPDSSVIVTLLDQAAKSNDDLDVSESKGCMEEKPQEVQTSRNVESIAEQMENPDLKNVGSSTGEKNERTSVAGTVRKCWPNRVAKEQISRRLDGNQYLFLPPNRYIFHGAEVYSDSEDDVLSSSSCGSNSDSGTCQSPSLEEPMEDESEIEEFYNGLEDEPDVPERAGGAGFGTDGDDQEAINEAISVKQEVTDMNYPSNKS
# Test: Inhibition of human recombinant SIRT1 using fluorogenic HDAC substrate after 20 mins by fluorimetrc method
# Conditions: not given
row,pKi,Structure (SMILES)
1,< 5.00,CC(Nc1c(NCCCCCC(=O)NO)c(=O)c1=O)C12CC3CC(CC(C3)C1)C2 (stereo not given)
2,< 5.00,COc1ccc(Nc2c(NCCCCCC(=O)NO)c(=O)c2=O)cc1
3,< 5.00,CC(C)(CCCCC(=O)NO)Nc1c(Nc2ccc(C(F)(F)F)cc2)c(=O)c1=O

# Tested on: not listed separately
# Test: Solubility in PG/EtOH (96%) at 30 mg/mL after 24 hrs by UV-spectrometric method
# Type: physicochemical
# Conditions: PG/EtOH (96%)
row,solubility at 24 h,Structure (SMILES)
1,39 mM,CC(Nc1c(NCCCCCC(=O)NO)c(=O)c1=O)C12CC3CC(CC(C3)C1)C2 (stereo not given)
2,0.3 mM,COc1ccc(Nc2c(NCCCCCC(=O)NO)c(=O)c2=O)cc1
3,30 mM,CC(C)(CCCCC(=O)NO)Nc1c(Nc2ccc(C(F)(F)F)cc2)c(=O)c1=O
